Values of other authors, collected in PMC10224173 (Viruses, 2023).

Molecular target: ZIKV NS2B-NS3 protease (Zika virus, UniProt A0A024B7W1)
Conditions: Table 2; active site inhibitor; ref [43]

ZIKV NS2B-NS3 protease, sequence (A0A024B7W1 1503-1680): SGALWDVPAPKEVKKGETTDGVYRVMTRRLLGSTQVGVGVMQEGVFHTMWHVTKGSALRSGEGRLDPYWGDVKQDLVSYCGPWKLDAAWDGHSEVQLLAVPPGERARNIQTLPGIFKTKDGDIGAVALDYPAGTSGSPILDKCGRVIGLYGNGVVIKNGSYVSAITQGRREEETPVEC
ZIKV NS2B-NS3 protease, sequence (A0A024B7W1 1419-1472): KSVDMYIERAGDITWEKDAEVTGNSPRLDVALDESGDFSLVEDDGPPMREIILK

SMILES: CC(C)C[C@H]1C(=O)N2CCC[C@H]2[C@]2(O)O[C@](NC(=O)[C@@H]3C=C4c5cccc6[nH]c(Br)c(c56)C[C@H]4N(C)C3)(C(C)C)C(=O)N12 [Bromocriptine]
- IC50: 21.6 µM
